{"source": "ChEMBL document CHEMBL1649234", "about": "“Antimicrobial activities of piperacillin-tazobactam against Haemophilus influenzae isolates, including beta-lactamase-negative ampicillin-resistant and beta-lactamase-positive amoxicillin-clavulanate-resistant isolates, and mutations in their quinolone resistance-determining regions” (2009)", "key": {"Haemophilus influenzae [1]": {"system": "Haemophilus influenzae", "experiment": "Antimicrobial activity against beta-lactamase negative ampicillin-susceptible-Haemophilus influenzae harboring gyrA Asp88Gly, gyrB Thr472Ile and parC Asp83Asn mutant gene by broth microdilution method"}, "Haemophilus influenzae [2]": {"system": "Haemophilus influenzae", "experiment": "Antimicrobial activity against beta-lactamase positive ampicillin-resistant-Haemophilus influenzae gyrA Ser84Leu, parC Ser84Arg/Asn138Ser and parE Asp364Gly mutant gene by broth microdilution method"}, "Haemophilus influenzae [3]": {"system": "Haemophilus influenzae", "experiment": "Antimicrobial activity against beta-lactamase positive ampicillin-resistant-Haemophilus influenzae gyrA Asp88Asn, parC Ser84Cys and parE Ala369Thr mutant gene by broth microdilution method"}, "Haemophilus influenzae [4]": {"system": "Haemophilus influenzae", "experiment": "Antimicrobial activity against beta-lactamase negative ampicillin-resistant-Haemophilus influenzae harboring fst1 mutant gene and gyrA Ser84Leu, parC Ser133Ala/Asn138Ser mutant gene by broth microdilution method"}, "Haemophilus influenzae [5]": {"system": "Haemophilus influenzae", "experiment": "Antimicrobial activity against beta-lactamase negative ampicillin-resistant-Haemophilus influenzae harboring fst1 mutant gene and gyrA Ser84Leu mutant gene by broth microdilution method"}, "Haemophilus influenzae [6]": {"system": "Haemophilus influenzae", "experiment": "Antimicrobial activity against beta-lactamase negative ampicillin-resistant-Haemophilus influenzae harboring fst1 mutant gene and gyrA Ser84Leu, parC Asn138Ser and parE Ser474Asn mutant gene by broth microdilution method"}, "Haemophilus influenzae [7]": {"system": "Haemophilus influenzae", "experiment": "Antimicrobial activity against beta-lactamase negative ampicillin-resistant-Haemophilus influenzae harboring fst1 mutant gene and gyrA Asp88Thr and parC Glu88Lys mutant gene by broth microdilution method"}, "Haemophilus influenzae [8]": {"system": "Haemophilus influenzae", "experiment": "Antimicrobial activity against beta-lactamase positive (amoxicillin)-clavulanate-resistant Haemophilus influenzae harboring fst1 mutant gene and gyrA Ser84Leu/Asp88Gly, parC Glu88Lys and parE VAl392Ile/Asp420Asn mutant gene by broth microdilution method"}, "Haemophilus influenzae [9]": {"system": "Haemophilus influenzae", "experiment": "Antimicrobial activity against beta-lactamase positive (amoxicillin)-clavulanate-resistant Haemophilus influenzae harboring fst1 mutant gene and gyrA Ser84Leu, parC Ser84Ile/Asn138Ser mutant gene by broth microdilution method"}, "Haemophilus influenzae [10]": {"system": "Haemophilus influenzae", "experiment": "Antimicrobial activity against beta-lactamase positive (amoxicillin)-clavulanate-resistant -Haemophilus influenzae harboring fst1 mutant gene and gyrA Ser84Leu, parC Ser84Cys and parE Asp364Thr mutant gene by broth microdilution method"}, "Haemophilus influenzae [11]": {"system": "Haemophilus influenzae", "experiment": "Antimicrobial activity against beta-lactamase positive (amoxicillin)-clavulanate-resistant Haemophilus influenzae harboring fst1 mutant gene and gyrA Ser84Leu, parC Ser84Cys and parE Ala369Thr mutant gene by broth microdilution method"}, "Haemophilus influenzae [12]": {"system": "Haemophilus influenzae", "experiment": "Antimicrobial activity against beta-lactamase positive (amoxicillin)-clavulanate-resistant Haemophilus influenzae harboring fst1 mutant gene and gyrA Ser84Leu and parE Ala369Thr mutant gene by broth microdilution method"}, "Haemophilus influenzae [13]": {"system": "Haemophilus influenzae", "experiment": "Antimicrobial activity against beta-lactamase positive (amoxicillin)-clavulanate-resistant Haemophilus influenzae harboring fst1 mutant gene and gyrA Asp88Thr mutant gene by broth microdilution method"}, "Haemophilus influenzae [14]": {"system": "Haemophilus influenzae", "experiment": "Antimicrobial activity against beta-lactamase negative ampicillin-resistant -Haemophilus influenzae by broth microdilution method", "type": "functional"}, "Haemophilus influenzae [15]": {"system": "Haemophilus influenzae", "experiment": "Antimicrobial activity against beta-lactamase negative ampicillin-resistant Haemophilus influenzae assessed as susceptible isolates by broth microdilution method", "type": "functional"}, "Haemophilus influenzae [16]": {"system": "Haemophilus influenzae", "experiment": "Antimicrobial activity against beta-lactamase positive (amoxicillin)clavulanate-resistant Haemophilus influenzae by broth microdilution method", "type": "functional"}, "Haemophilus influenzae [17]": {"system": "Haemophilus influenzae", "experiment": "Antimicrobial activity against beta-lactamase positive (amoxicillin)clavulanate-resistant Haemophilus influenzae assessed as susceptible isolates by broth microdilution method", "type": "functional"}, "Haemophilus influenzae [18]": {"system": "Haemophilus influenzae", "experiment": "Antimicrobial activity against beta-lactamase negative ampicillin-resistant Haemophilus influenzae by broth microdilution method in presence of beta-lactamase inhibitor Tazobactam", "type": "functional"}, "Haemophilus influenzae [19]": {"system": "Haemophilus influenzae", "experiment": "Antimicrobial activity against beta-lactamase negative ampicillin-resistant Haemophilus influenzae assessed as susceptible isolates by broth microdilution method in presence of beta-lactamase inhibitor Tazobactam", "type": "functional"}, "Haemophilus influenzae [20]": {"system": "Haemophilus influenzae", "experiment": "Antimicrobial activity against beta-lactamase positive (amoxicillin)clavulanate-resistant Haemophilus influenzae by broth microdilution method in presence of beta-lactamase inhibitor Tazobactam", "type": "functional"}, "Haemophilus influenzae [21]": {"system": "Haemophilus influenzae", "experiment": "Antimicrobial activity against beta-lactamase positive (amoxicillin)clavulanate-resistant Haemophilus influenzae assessed as susceptible isolates by broth microdilution method in presence of beta-lactamase inhibitor Tazobactam", "type": "functional"}, "Haemophilus influenzae [22]": {"system": "Haemophilus influenzae", "experiment": "Antimicrobial activity against beta-lactamase negative ampicillin-susceptible Haemophilus influenzae harboring […] mutant gene by broth microdilution method in presence of beta-lactamase inhibitor Tazobactam", "type": "functional"}, "Haemophilus influenzae [23]": {"system": "Haemophilus influenzae", "experiment": "Antimicrobial activity against beta-lactamase negative ampicillin-susceptible Haemophilus influenzae harboring […] mutant gene assessed as susceptible isolates by broth microdilution method in presence of beta-lactamase inhibitor Tazobactam", "type": "functional"}, "Haemophilus influenzae [24]": {"system": "Haemophilus influenzae", "experiment": "Antimicrobial activity against beta-lactamase-positive ampicillin-resistant Haemophilus influenzae harboring […] mutant gene by broth microdilution method in presence of beta-lactamase inhibitor Tazobactam", "type": "functional"}, "Haemophilus influenzae [25]": {"system": "Haemophilus influenzae", "experiment": "Antimicrobial activity against beta-lactamase-positive ampicillin-resistant Haemophilus influenzae harboring fst1 mutant gene assessed as susceptible isolates by broth microdilution method in presence of beta-lactamase inhibitor Tazobactam", "type": "functional"}, "Haemophilus influenzae [26]": {"system": "Haemophilus influenzae", "experiment": "Antimicrobial activity against beta-lactamase negative ampicillin-resistant-Haemophilus influenzae harboring […] mutant gene by disk diffusion method in presence of beta-lactamase inhibitor Tazobactam", "type": "functional"}, "Haemophilus influenzae [27]": {"system": "Haemophilus influenzae", "experiment": "Antimicrobial activity against beta-lactamase negative […]-Haemophilus influenzae harboring […] mutant gene by disk diffusion method in presence of beta-lactamase inhibitor Tazobactam", "type": "functional"}}, "data": [{"smiles": "O=C(O)c1cn(C2CC2)c2cc(N3CCNCC3)c(F)cc2c1=O", "note": "[CIPROFLOXACIN]", "values": [{"measurement": "MIC", "setting": "Haemophilus influenzae [1]", "value": 0.25, "unit": "µg/mL"}, {"measurement": "MIC", "setting": "Haemophilus influenzae [2]", "value": 0.25, "unit": "µg/mL"}, {"measurement": "MIC", "setting": "Haemophilus influenzae [3]", "value": 0.25, "unit": "µg/mL"}, {"measurement": "MIC", "setting": "Haemophilus influenzae [4]", "value": 0.06, "unit": "µg/mL"}, {"measurement": "MIC", "setting": "Haemophilus influenzae [5]", "value": 0.06, "unit": "µg/mL"}, {"measurement": "MIC", "setting": "Haemophilus influenzae [6]", "value": 0.06, "unit": "µg/mL"}, {"measurement": "MIC", "setting": "Haemophilus influenzae [7]", "value": 0.06, "unit": "µg/mL"}, {"measurement": "MIC", "setting": "Haemophilus influenzae [8]", "value": 16, "unit": "µg/mL"}, {"measurement": "MIC", "setting": "Haemophilus influenzae [9]", "value": 0.5, "unit": "µg/mL"}, {"measurement": "MIC", "setting": "Haemophilus influenzae [10]", "value": 0.25, "unit": "µg/mL"}, {"measurement": "MIC", "setting": "Haemophilus influenzae [11]", "value": 0.06, "unit": "µg/mL"}, {"measurement": "MIC", "setting": "Haemophilus influenzae [12]", "value": 0.06, "unit": "µg/mL"}, {"measurement": "MIC", "setting": "Haemophilus influenzae [13]", "value": 0.06, "unit": "µg/mL"}]}, {"smiles": "C[C@@H](O)[C@H]1C(=O)N2C(C(=O)O)=C(SCCNC=N)C[C@H]12", "note": "[IMIPENEM ANHYDROUS]", "values": [{"measurement": "MIC50", "setting": "Haemophilus influenzae [14]", "value": 1, "unit": "µg/mL"}, {"measurement": "MIC90", "setting": "Haemophilus influenzae [14]", "value": 4, "unit": "µg/mL"}, {"measurement": "Activity", "setting": "Haemophilus influenzae [15]", "value": 96, "unit": "%"}, {"measurement": "MIC50", "setting": "Haemophilus influenzae [16]", "value": 2, "unit": "µg/mL"}, {"measurement": "MIC90", "setting": "Haemophilus influenzae [16]", "value": 2, "unit": "µg/mL"}, {"measurement": "Activity", "setting": "Haemophilus influenzae [17]", "value": 98, "unit": "%"}]}, {"smiles": "C[C@@H](O)[C@H]1C(=O)N2C(C(=O)O)=C(S[C@@H]3CN[C@H](C(=O)N(C)C)C3)[C@H](C)[C@H]12", "note": "[MEROPENEM]", "values": [{"measurement": "MIC50", "setting": "Haemophilus influenzae [14]", "value": 0.25, "unit": "µg/mL"}, {"measurement": "MIC90", "setting": "Haemophilus influenzae [14]", "value": 0.5, "unit": "µg/mL"}, {"measurement": "Activity", "setting": "Haemophilus influenzae [15]", "value": 99, "unit": "%"}, {"measurement": "MIC50", "setting": "Haemophilus influenzae [16]", "value": 0.25, "unit": "µg/mL"}, {"measurement": "MIC90", "setting": "Haemophilus influenzae [16]", "value": 0.5, "unit": "µg/mL"}, {"measurement": "Activity", "setting": "Haemophilus influenzae [17]", "value": 100, "unit": "%"}]}, {"smiles": "CCN1CCN(C(=O)N[C@@H](C(=O)N[C@@H]2C(=O)N3[C@@H]2SC(C)(C)[C@@H]3C(=O)O)c2ccccc2)C(=O)C1=O", "note": "[PIPERACILLIN]", "values": [{"measurement": "MIC50", "setting": "Haemophilus influenzae [14]", "value": 0.12, "unit": "µg/mL"}, {"measurement": "MIC90", "setting": "Haemophilus influenzae [14]", "value": 0.25, "unit": "µg/mL"}, {"measurement": "MIC50", "setting": "Haemophilus influenzae [18]", "value": 0.06, "unit": "µg/mL"}, {"measurement": "MIC90", "setting": "Haemophilus influenzae [18]", "value": 0.12, "unit": "µg/mL"}, {"measurement": "Activity", "setting": "Haemophilus influenzae [19]", "value": 100, "unit": "%"}, {"measurement": "MIC50", "setting": "Haemophilus influenzae [16]", "value": 32, "unit": "µg/mL"}, {"measurement": "MIC90", "setting": "Haemophilus influenzae [16]", "value": "≥ 64", "unit": "µg/mL"}, {"measurement": "MIC50", "setting": "Haemophilus influenzae [20]", "value": 0.12, "unit": "µg/mL"}, {"measurement": "MIC90", "setting": "Haemophilus influenzae [20]", "value": 0.25, "unit": "µg/mL"}, {"measurement": "Activity", "setting": "Haemophilus influenzae [21]", "value": 100, "unit": "%"}, {"measurement": "MIC", "setting": "Haemophilus influenzae [22]", "value": "≤ 0.03", "unit": "µg/mL"}, {"measurement": "MIC50", "setting": "Haemophilus influenzae [22]", "value": "≤ 0.03", "unit": "µg/mL"}, {"measurement": "MIC90", "setting": "Haemophilus influenzae [22]", "value": 0.06, "unit": "µg/mL"}, {"measurement": "Activity", "setting": "Haemophilus influenzae [23]", "value": 100, "unit": "%"}, {"measurement": "MIC", "setting": "Haemophilus influenzae [24]", "value": "≤ 0.03", "unit": "µg/mL"}, {"measurement": "MIC50", "setting": "Haemophilus influenzae [24]", "value": "≤ 0.03", "unit": "µg/mL"}, {"measurement": "MIC90", "setting": "Haemophilus influenzae [24]", "value": 0.06, "unit": "µg/mL"}, {"measurement": "Activity", "setting": "Haemophilus influenzae [25]", "value": 100, "unit": "%"}, {"measurement": "inhibition zone (IZ)", "setting": "Haemophilus influenzae [26]", "value": ">=21 mm"}, {"measurement": "inhibition zone (IZ)", "setting": "Haemophilus influenzae [27]", "value": ">=21 mm"}]}]}
